In US10342796B2, “Acrylanilide derivative, preparation method, and applications thereof in pharmacy” (Ancureall Pharmaceutical (Shanghai) Co., Ltd., priority 2015, dated 2019):
Like-named read-outs stand apart in the source and are kept apart here.

What was measured:
Experiment in all cases: Growth inhibition GI50 in vitro (CCK8/MTT, 72 h)
[1] = test system: H1975 (EGFR L858R/T790M); type: cell-based, human; settings: Homo sapiens, NCI-H1975
[2] = test system: PC-9ER (EGFR delE746-A750/T790M); type: cell-based, human; settings: Homo sapiens, PC-9/ER; EGFR mutant cell line; range of GI50; read-out: GI50 PC9ER
[3] = test system: HCC827 (EGFR dE746-A750); type: cell-based, human; settings: Homo sapiens
[4] = test system: PC-9 (EGFR dE746-A750); type: cell-based, human; settings: Homo sapiens
[5] = test system: A431 (EGFR WT, amplification and high expression); type: cell-based, human; settings: Homo sapiens, A-431
[6] = test system: A549 (EGFR WT); type: cell-based, human; settings: Homo sapiens
[7] = test system: H460 (EGFR wt, Kras G61H); type: cell-based, human; settings: Homo sapiens, NCI-H460
[8] = test system: H1299 (EGFR wt, Nras Q61K); type: cell-based, human; settings: Homo sapiens, NCI-H1299
[9] = test system: H292 (EGFR WT); type: cell-based; settings: Homo sapiens, NCI-H292; H292, EGFR wt; read-out: GI50
[10] = test system: Calu-3 (Her2 amp); type: cell-based; settings: Homo sapiens; Calu-3, EGFR wt, Her2 amp; read-out: GI50
[11] = test system: N87 (HER2 Amp); type: cell-based, human; settings: Homo sapiens
[12] = test system: AU565 (Her2 amp); type: cell-based, human; settings: Homo sapiens
[13] = test system: SK-BR-3 (Her2 amp); type: cell-based, human; settings: Homo sapiens

GI50 ([1]; EGFR mutant cell line, range of GI50, read-out: GI50 H1975): 10 to 100 nM
GI50 ([1]; H1975, EGFR L858R/T790M, read-out: GI50): 12.5 nM
GI50 [2]: 10 to 100 nM
GI50 ([3]; HCC827, EGFR mutant cell line, range of GI50, read-out: GI50 HCC827): < 10 nM
GI50 ([3]; HCC827, EGFR dE746-A750, read-out: GI50): 9 nM
GI50 ([4]; EGFR mutant cell line, range of GI50, read-out: GI50 PC-9): < 10 nM
GI50 ([4]; PC-9, EGFR dE746-A750, read-out: GI50): 3.38 nM
GI50 ([5]; A431, EGFR wt, read-out: GI50): 315 nM
GI50 ([5]; EGFR wild type cell line, range of GI50, read-out: GI50 A431): 100 to 1000 nM
GI50 ([6]; A549, EGFR wild type cell line, range of GI50, read-out: GI50 A549): > 1000 nM
GI50 ([6]; A549, EGFR wt, Kras G12S, read-out: GI50): > 1000 nM
GI50 ([7]; EGFR wild type cell line, range of GI50, read-out: GI50 H460): > 1000 nM
GI50 ([7]; H460, EGFR wt, Kras G61H, read-out: GI50): > 1000 nM
GI50 ([8]; EGFR wild type cell line, range of GI50, read-out: GI50 H1299): > 1000 nM
GI50 ([8]; H1299, EGFR wt, Nras Q61K, read-out: GI50): > 1000 nM
GI50 [9]: > 1000 nM
GI50 [10]: 23.4 nM
GI50 ([13]; SK-BR-3, HER2 positive cell line, range of GI50, read-out: GI50 SK-BR-3): 10 to 100 nM
GI50 ([13]; SK-BR-3, EGFR wt, Her2 amp, read-out: GI50): 78.1 nM
Compound: C=CC(=O)Nc1cc(Nc2cc(-c3cn(C(C)C)c4ccccc34)ncn2)c(OC)cc1N(C)CCN(C)C [Compound 183]
GI50 ([11]; HER2 positive cell line, range of GI50, read-out: GI50 N87): 10 to 100 nM
GI50 ([11]; N87, EGFR wt, Her2 amp, read-out: GI50): 19.5 nM
GI50 ([12]; AU565, HER2 positive cell line, range of GI50, read-out: GI50 AU-565): 10 to 100 nM
GI50 ([12]; AU565, EGFR wt, Her2 amp, read-out: GI50): 19.5 nM
